Measurements as given in patent US20190315814A1, “LANTIBIOTIC VARIANTS AND USES THEREOF” (priority 2016, published 2019).
Converted amounts (≈) assume the structure as drawn. Where two headings read alike, the source gives them in different places.

Columns and labels:
[1] = tested on: VRE Enterococcus faecalis; details: VRE
[2] = simulated gi fluid
[3] = tested on: Peptostreptococcus anaerobius (ATCC 27337)
[4] = tested on: Clostridium difficile UNT103-1; assay: Non-cannulated Syrian hamster C. difficile infection model, oral gavage; type: in vivo, Golden Syrian hamsters; details: for Percent Survival at Day-22: oral gavage TID Days 2-6, vancomycin 20 mg/kg once a day; for Toxin A level at Day-22 / Mean LOG10 CFU/mL of feces homogenates (cecal spore counts) at Day-22 / Toxin B level at Day-22: oral gavage; for Toxin A level at Day-22: first value of A/B cell; for Toxin A level at Day-22 / Toxin B level at Day-22: limit of detection 0.8; for Mean LOG10 CFU/mL of feces homogenates (cecal spore counts) at Day-22: limit of detection 2.40; for Toxin B level at Day-22: second value of A/B cell
Experimental: Following the recovery phase, male Golden Syrian hamsters were inoculated with Clostridium difficile UNT103-1 (VA11, non epidemic (cdtB-, REA group J) Curtis Donskey, Cleveland VA Hospital, Cleveland, Ohio). On Day 1, at 24 hrs after infection, all animals received a single subcutaneous injection of clindamycin (10 mg/kg). Test article formulations were administered three times per day (TID), starting on Day 2 at 18 hours after Clindamycin injection, for 5 consecutive days (Days 2 through 6), and followed until Day 22 to assess recurrence. Vancomycin (positive control) was administered once a day at 20 mg/kg on Days 2 through 6. Cecal spore counts and Toxins A and B were determined as described above

[5] = tested on: Clostridium scindens (ATCC 35704)
[6] = tested on: Lactobacillus acidophilus (CCUG 4356)
[7] = tested on: Eggerthella lenta (ATCC 27337)
in vitro = details: simulated gi fluid
Experimental: Assay incubation conditions included […] simulated gastric fluid (SGF, USP 39 Test Solution; 2 g/L NaCl, 7 mL/L glacial HCl, pH 1.4) containing 1.75 mg/mL Pepsin (3200-4500 U/mg) mixed with 7.5 μL of 10 mg/mL variant (or positive control, NH2-Met-Arg-Phe-Ala-OH, MRFA, CAS#67368-29-0) for a final concentration of 300 μg/ml variant in a microfuge tube. Samples were incubated at 37° C. and analyzed using HPLC or LC-MS for loss of substrate. The percent remaining, elimination rate constant (Ke), and in vitro protein half-lives were calculated. A control of SGF without enzyme was also run and analyzed in the same manner for each variant.

[8] = FaSSIF + 1% pancreatin + 3 μg/ml trypsin + 3 μg/ml chymotrypsin half-life

Row | Structure (SMILES) | MIC VRE ATCC 51575 [1] [µg/mL] | MIC VRE CCUG 47775 [1] [µg/mL] | half-life [2, 8] [h] | half-life ([2]; FaSSIF only half-life) [h] | MIC P. anaerobius [3] [µg/mL] | Percent Survival at Day-22 [4] [%] | Toxin A level at Day-22 [4] [ng/mL] | Mean LOG10 CFU/mL of feces homogenates (cecal spore counts) at Day-22 [4] [LOG10 CFU/mL] | Toxin B level at Day-22 [4] [ng/mL] | MIC C. scindens [5] [µg/mL] | MIC L. acidophilus [6] [µg/mL] | MIC to H. Pylori without EDTA (Heliobacter pylori) [µg/mL] | MIC to H. Pylori with 0.05M EDTA (Heliobacter pylori) [µg/mL] | MIC E. lenta [7] [µg/mL] | half-life (in vitro) [h] | MIC VRE ATCC 700221 (VRE Enterococcus faecium) [µg/mL]
1 | C=C1NC(=O)[C@H](Cc2c[nH]c3ccccc23)NC(=O)[C@H](NC(=O)[C@H](CCCCN)NC(=O)[C@@H](N)CC(C)C)CSC[C@@H](C(=O)N[C@H]2C(=O)N3CCC[C@H]3C(=O)NCC(=O)N[C@H](C(=O)N[C@@H](C)C(=O)N[C@@H](C)C(=O)NC(=CC)C(=O)NCC(=O)N[C@@H]3CSC[C@@H]4NC(=O)[C@H](Cc5ccc(O)cc5)NC(=O)[C@@H](CS/C=C\NC4=O)NC(=O)[C@H](CC(N)=O)NC(=O)[C@H](Cc4ccccc4)NC3=O)CS[C@H]2C)NC(=O)[C@H](CC(C)C)NC1=O [F1L R13A] | 32 (≈ 14.9 µM) | 16 (≈ 7.46 µM) | > 12 | > 12 | 0.5 (≈ 0.233 µM) | 0 | 4532.5 | 7.28 | 1795.5 | 4 (≈ 1.86 µM) | 0.5 (≈ 0.233 µM) | 8 (≈ 3.73 µM) | 8 | 0.5 (≈ 0.233 µM) | > 24 | 16 (≈ 7.46 µM)
2 | C=C1NC(=O)[C@H](Cc2c[nH]c3ccccc23)NC(=O)[C@H](NC(=O)[C@H](CCCCN)NC(=O)[C@@H](N)[C@@H](C)CC)CSC[C@@H](C(=O)N[C@H]2C(=O)N3CCC[C@H]3C(=O)NCC(=O)N[C@H](C(=O)N[C@@H](C)C(=O)N[C@@H](CC(=O)O)C(=O)NC(=CC)C(=O)NCC(=O)N[C@@H]3CSC[C@@H]4NC(=O)[C@H](Cc5ccc(O)cc5)NC(=O)[C@@H](CS/C=C\NC4=O)NC(=O)[C@H](CC(N)=O)NC(=O)[C@H](Cc4ccccc4)NC3=O)CS[C@H]2C)NC(=O)[C@H](CC(C)C)NC1=O [F1I R13D] | 32 (≈ 14.6 µM) | 32 (≈ 14.6 µM) | > 12 | > 12 | 1 (≈ 0.457 µM) | 50 | 648.5 | 4.8 | 216.6 | 8 (≈ 3.65 µM) | 2 (≈ 0.913 µM) | 8 (≈ 3.65 µM) | 8 | 2 (≈ 0.913 µM) | > 24 | 32 (≈ 14.6 µM)
3 | C=C1NC(=O)[C@H](Cc2c[nH]c3ccccc23)NC(=O)[C@H](NC(=O)[C@H](CCCCN)NC(=O)[C@@H](N)CC(C)C)CSC[C@@H](C(=O)N[C@H]2C(=O)N3CCC[C@H]3C(=O)NCC(=O)N[C@H](C(=O)N[C@@H](C)C(=O)N[C@@H](CC(N)=O)C(=O)NC(=CC)C(=O)NCC(=O)N[C@@H]3CSC[C@@H]4NC(=O)[C@H](Cc5ccc(O)cc5)NC(=O)[C@@H](CS/C=C\NC4=O)NC(=O)[C@H](CC(N)=O)NC(=O)[C@H](Cc4ccccc4)NC3=O)CS[C@H]2C)NC(=O)[C@H](CC(C)C)NC1=O [F1L R13N] | 16 (≈ 7.31 µM) | 16 (≈ 7.31 µM) | > 12 | > 12 | 0.25 (≈ 0.114 µM) | 0 | 5477.8 | 7.36 | 2189.1 | 4 (≈ 1.83 µM) | 0.5 (≈ 0.228 µM) | 8 (≈ 3.66 µM) | 8 | 0.25 (≈ 0.114 µM) | > 24 | 16 (≈ 7.31 µM)
4 | C=C1NC(=O)[C@H](Cc2c[nH]c3ccccc23)NC(=O)[C@H](NC(=O)[C@H](CCCCN)NC(=O)[C@@H](N)[C@@H](C)CC)CSC[C@@H](C(=O)N[C@H]2C(=O)N3CCC[C@H]3C(=O)NCC(=O)N[C@H](C(=O)N[C@@H](C)C(=O)N[C@@H](CC(N)=O)C(=O)NC(=CC)C(=O)NCC(=O)N[C@@H]3CSC[C@@H]4NC(=O)[C@H](Cc5ccc(O)cc5)NC(=O)[C@@H](CS/C=C\NC4=O)NC(=O)[C@H](CC(N)=O)NC(=O)[C@H](Cc4ccccc4)NC3=O)CS[C@H]2C)NC(=O)[C@H](CC(C)C)NC1=O [F1I R13N] | 16 (≈ 7.31 µM) | 16 (≈ 7.31 µM) | > 12 | > 12 | 0.25 (≈ 0.114 µM) | 66 | 138.1 | 3.64 | 120.2 | 2 (≈ 0.914 µM) | 0.5 (≈ 0.228 µM) | 8 (≈ 3.66 µM) | 8 | 0.5 (≈ 0.228 µM) | > 24 | 32 (≈ 14.6 µM)
5 | C=C1NC(=O)[C@H](Cc2c[nH]c3ccccc23)NC(=O)[C@H](NC(=O)[C@H](CCCCN)NC(=O)[C@@H](N)[C@@H](C)CC)CSC[C@@H](C(=O)N[C@H]2C(=O)N3CCC[C@H]3C(=O)NCC(=O)N[C@H](C(=O)N[C@@H](C)C(=O)N[C@@H](C)C(=O)NC(=CC)C(=O)NCC(=O)N[C@@H]3CSC[C@@H]4NC(=O)[C@H](Cc5ccc(O)cc5)NC(=O)[C@@H](CS/C=C\NC4=O)NC(=O)[C@H](CC(N)=O)NC(=O)[C@H](Cc4ccccc4)NC3=O)CS[C@H]2C)NC(=O)[C@H](CC(C)C)NC1=O [F1I R13A] | 16 (≈ 7.46 µM) | 16 (≈ 7.46 µM) | > 12 | > 12 | 1 (≈ 0.466 µM) | 50 | 147 | 4.67 | 205.5 | 4 (≈ 1.86 µM) | 0.5 (≈ 0.233 µM) | 8 (≈ 3.73 µM) | 8 | 2 (≈ 0.932 µM) | > 24 | 8 (≈ 3.73 µM)
